Assay results as given in ChEMBL document CHEMBL3102811, “Synthesis and anti-inflammatory activity of indole glucosinolates” (2014).

How the values were obtained:
Type in all cases: functional
THP-1 [1] = experiment: Antiinflammatory activity in PMA-treated human THP1 cells assessed as LPS-induced TNFalpha secretion at 5 uM after 4 hrs by sandwich ELISA relative to control
THP-1 [2] = experiment: Antiinflammatory activity in PMA-treated human THP1 cells assessed as inhibition of LPS-induced TNFalpha secretion at 0.5 uM after 4 hrs by sandwich ELISA relative to control; conditions: THP-1, 4 h
THP-1 [3] = experiment: Antiinflammatory activity in PMA-treated human THP1 cells assessed as LPS-induced TNFalpha secretion at 0.5 uM after 4 hrs by sandwich ELISA relative to control
THP-1 [4] = experiment: Antiinflammatory activity in PMA-treated human THP1 cells assessed as LPS-induced TNFalpha secretion at 15 uM after 4 hrs by sandwich ELISA relative to control
THP-1 [5] = experiment: Antiinflammatory activity in PMA-treated human THP1 cells assessed as inhibition of LPS-induced TNFalpha secretion at 15 uM after 4 hrs by sandwich ELISA relative to control; conditions: THP-1, 4 h
THP-1 [6] = experiment: Antiinflammatory activity in PMA-treated human THP1 cells assessed as inhibition of LPS-induced TNFalpha secretion at >=10 uM after 4 hrs by sandwich ELISA relative to control
THP-1 [7] = experiment: Antiinflammatory activity in PMA-treated human THP1 cells assessed as inhibition of LPS-induced TNFalpha secretion at 1 uM after 4 hrs by sandwich ELISA relative to control; conditions: THP-1, 4 h
THP-1 [8] = experiment: Antiinflammatory activity in PMA-treated human THP1 cells assessed as LPS-induced TNFalpha secretion at 10 uM after 4 hrs by sandwich ELISA relative to control
THP-1 [9] = experiment: Antiinflammatory activity in PMA-treated human THP1 cells assessed as LPS-induced TNFalpha secretion at 1 uM after 4 hrs by sandwich ELISA relative to control
THP-1 [10] = experiment: Antiinflammatory activity in PMA-treated human THP1 cells assessed as LPS-induced TNFalpha secretion at 0.10 uM after 4 hrs by sandwich ELISA relative to control
THP-1 [11] = experiment: Antiinflammatory activity in PMA-treated human THP1 cells assessed as inhibition of LPS-induced TNFalpha secretion at 10 uM after 4 hrs by sandwich ELISA relative to control; conditions: THP-1, 4 h

Row | Compound | Activity (THP-1 [1]) [pg/mg] | inhibition at 0.5 µM (THP-1 [2]) [%] | Activity (THP-1 [3]) [pg/mg] | Activity (THP-1 [4]) [pg/mg] | inhibition at 15 µM (THP-1 [5]) [%] | inhibition (INH) (THP-1 [6]) | inhibition at 1 µM (THP-1 [7]) [%] | Activity (THP-1 [8]) [pg/mg] | Activity (THP-1 [9]) [pg/mg] | Activity (THP-1 [10]) [pg/mg] | inhibition at 10 µM (THP-1 [11]) [%]
1 | Oc1cc(O)c2c(c1)OC(c1ccc(O)c(O)c1)C(O)C2 (centres undefined) [CATECHIN] | 282.65 | 37 | 303.98 | 255.94 | 48 |  |  |  |  |  | 
2 | COn1cc(C/C(=N\OS(=O)(=O)[O-])S[C@@H]2O[C@H](CO)[C@@H](O)[C@H](O)[C@H]2O)c2ccccc21.[K+] |  |  |  | 169.06 |  | >=32% | ≥ 24 | 181.1 | 228.9 | 251.69 | 
3 | COc1cccc2[nH]cc(C/C(=N\OS(=O)(=O)[O-])S[C@@H]3O[C@H](CO)[C@@H](O)[C@H](O)[C@H]3O)c12.[K+] |  |  |  | 135.01 | 46 |  | 24 | 146.53 | 187.45 | 214.36 | 41
4 | O=S(=O)([O-])O/N=C(\Cc1c[nH]c2ccccc12)S[C@@H]1O[C@H](CO)[C@@H](O)[C@H](O)[C@H]1O.[K+] |  |  |  | 136.79 | 54 |  | ≥ 24 | 158.94 | 196.65 | 215.57 | 
